Assay results published in patent US20090137580A1, “Fused Heterocyclic Derivatives and Use Thereof” (Takeda Pharmaceutical Company Limited, priority 2005, published 2009).

Assays:
Format in all cases: biochemical
[1] = molecular target: T1, VEGF Receptor 2 Kinase (VEGFR2) (Homo sapiens, UniProt P35968); assay: Determination of VEGF receptor 2 kinase (VEGFR2) inhibitory activity (alpha screen); conditions: VEGFR2 intracellular domain protein, 25 μM ATP buffer, read-out: inhibitory rate (kinase inhibitory rate of VEGFR2)
T1 construct: made in house; host or cells: SF-21 insect cells, recombinant baculovirus BAC-VEGFR2 (pFASTBAC1)
Method: For cloning of human VEGF receptor 2 (hereinafter to be abbreviated as VEGFR2) gene, PCR was performed using cDNA Libraries Human Placenta (Clontech) as a template. The primer used for PCR was prepared by, based on the information of the base sequence (Genbank Accession AF035121) of VEGFR2 gene, adding a base sequence encoding the flag peptide and a restriction enzyme recognition sequence to the base sequence (2671-4374 of Genbank Accession AF035121) encoding the VEGFR2 intracellular domain, so that a flag tag would be added to the N terminal of the protein. The primer base sequence is shown in the following.
PCR reaction was carried out using a KOD-plus kit (TOYOBO). The obtained PCR product was electrophoresed on an agarose gel (1%), and a DNA fragment amplified by PCR was recovered from the gel and digested with restriction enzymes Sal I and Sph I. The DNA after the restriction enzyme treatment was electrophoresed on an agarose gel (1%), and the obtained DNA fragment was recovered and ligated to the plasmid pFASTBAC1 (Invitrogen) digested with restriction enzymes Sal I and Sph I to give an expression plasmid pFB-VEGFR2. The base sequence of the inserted fragment was confirmed to have matched with the base sequence (2671-4374 of Genbank Accession AF035121) of the VEGFR2 intracellular domain. Furthermore, virus stock BAC-VEGFR2 of the recombinant Baculovirus was prepared using BAC-TO-BAC Baculovirus Expression System (Invitrogen).
SF-21 cells were inoculated into 1 L of Sf-900IISFM medium (Invitrogen) containing 10% fetal calf serum (trace), 50 mg/L Gentamicin (Invitrogen) and 0.1% Pluronic F-68 (Invitrogen) at 1×10^6 cells/ml, and shake culture was performed using a 2 L Erlenmeyer flask at 27° C., 100 rpm. After 24 hr of culture, recombinant Baculovirus BAC-VEGFR2 (13.4 mL) was added, and the culture was continued for 3 days. The culture medium was centrifuged at 2,000 rpm for 5 min to give virus-infected cells. The infected cells were washed with phosphate buffered saline (Invitrogen), centrifuged under the same conditions, and preserved at −80° C. The cryopreserved cells were thawed in ice, suspended in 30 mL of buffer A (Tris buffer, pH 7.4, containing 20% glycerol and 0.15M NaCl (50 mM)) supplemented with Complete Protease Inhibitor (Boehringer), and disrupted three times using a polytron homogenizer (Kinematica) at 20,000 rpm, 30 sec. The disrupt was clarified by centrifugation at 40,000 rpm, 30 min and filtered through a 0.45 μm filter. The filtrate was passed through a column packed with Anti-FLAG M2 Affinity Gel (Sigma Ltd., 4 mL) at a flow rate of about 0.5 mL/min. The column was washed with buffer A and eluted with buffer A containing 100 μg/mL FLAG peptide. The eluate was concentrated by Vivaspin 20 (Viva Science) having a fraction molecular weight of 30K. The concentrate was applied to NAP™ 25 column (Amersham Biosciences) equilibrated with buffer A for buffer exchange. The fractions containing the VEGFR2 intracellular domain protein were collected, glycerol was added to the final concentration of 50% and the fractions cryopreserved at ˜80° C.
The test compound dissolved in dimethyl sulfoxide (DMSO) was diluted with a buffer (50 mM Tris-HCl, pH 7.5, 5 mM MgCl2, 5 mM MnCl2, 2 mM dithiothreitol, 0.01% Tween-20). A buffer (10 μl) containing 50 ng/ml VEGFR2 intracellular domain protein and 250 ng/ml biotin-labeled polypeptide biotinyl-poly-Glu:Tyr (4:1) (CIS Bio International) was added to the compound solution (5 μl). A buffer (10 μl) containing 25 μM ATP was added to the obtained mixture, the mixture was allowed to react at 25° C. for 5 min. Then, 25 μl of a stop solution (100 mM EDTA·2 sodium salt, 62.5 mM HEPES buffer (pH 7.4), 250 mM NaCl, 0.1% bovine serum albumin, 10 μg/ml Streptavidin Donor beads: PerkinElmer for alpha screen assay, 10 μg/ml Anti-phosphotyrosine (P-Tyr-100) Acceptor beads: PerkinElmer for alpha screen assay) was added to quench the reaction. […]

[2] = molecular target: T2, TIE2 Receptor Kinase (TIE2) (Homo sapiens, UniProt Q02763); assay: Determination of TIE2 receptor kinase (TIE2) inhibitory activity (alpha screen); conditions: TIE2 intracellular domain protein, 5 μM ATP buffer; read-out: IC50 value (TIE2 kinase inhibition)
T2 construct: TIE2 intracellular domain protein (UPSTATE); purchased UPSTATE
Method: The test compound dissolved in dimethyl sulfoxide (DMSO) was diluted with a buffer (50 mM Tris-HCl, pH 7.5, 5 mM MgCl2, 5 mM MnCl2, 2 mM dithiothreitol, 0.01% Tween-20). A buffer (10 μl) containing 50 ng/ml TIE2 intracellular domain protein (UPSTATE) and 250 ng/ml biotin-labeled polypeptide biotinyl-poly-Glu:Tyr (4:1) (CIS Bio International) was added to the compound solution (5 μl). At 5 min after mixing a kinase enzyme, the compound and a biotin-labeled polypeptide, a buffer (10 μl) containing 5 μM ATP was added to the obtained mixture, the mixture was allowed to react at 25° C. for 10 min. Then, 25 μl of a stop solution (100 mM EDTA·2 sodium salt, 62.5 mM HEPES buffer (pH 7.4), 250 mM NaCl, 0.1% bovine serum albumin, 10 μg/ml Streptavidin Donor beads: PerkinElmer for alpha screen assay, 10 μg/ml Anti-phosphotyrosine (P-Tyr-66) Acceptor beads: PerkinElmer for alpha screen assay) was added to quench the reaction. The reaction solution was stood at 25° C. for 16 hr, and the count was measured using a plate reader·Fusion™ (manufactured by PerkinElmer). The kinase inhibitory rate (%) of the test compound was calculated by the following formula.
(§1) Inhibitory rate(%)=(1−(count of test compound−blank)÷(control−blank))×100
(§2) wherein the count of the solution reacted without addition of the compound is “control” and the count of the solution without addition of the compound and ATP is “blank”.
Prism (Graphpad Software) according to the nonlinear-regression sigmoidal dose-response (variable slope) analysis method.

[3] = molecular target: T3, PDGFR Alpha Receptor Kinase (PDGFRalpha) (Homo sapiens, UniProt P16234); assay: Determination of PDGFR alpha receptor kinase (PDGFRalpha) inhibitory activity (alpha screen); conditions: PDGFRalpha intracellular domain protein, 25 μM ATP buffer; read-out: IC50 value (PDGFRalpha kinase inhibition)
T3 construct: PDGFRalpha intracellular domain protein (UPSTATE); purchased UPSTATE
Method: The test compound dissolved in dimethyl sulfoxide (DMSO) was diluted with a buffer (50 mM Tris-HCl, pH 7.5, 5 mM MgCl2, 5 mM MnCl2, 2 mM dithiothreitol, 0.01% Tween-20).
Acceptor beads: PerkinElmer for alpha screen assay) was added to quench the reaction. The reaction solution was stood at 25° C. for 16 hr, and the count was measured using a plate reader·Fusion™ (manufactured by PerkinElmer). The kinase inhibitory rate (%) of the test compound was calculated by the following formula.
as §1, §2

T2 sequence (Q02763 770-1124 limits assumed): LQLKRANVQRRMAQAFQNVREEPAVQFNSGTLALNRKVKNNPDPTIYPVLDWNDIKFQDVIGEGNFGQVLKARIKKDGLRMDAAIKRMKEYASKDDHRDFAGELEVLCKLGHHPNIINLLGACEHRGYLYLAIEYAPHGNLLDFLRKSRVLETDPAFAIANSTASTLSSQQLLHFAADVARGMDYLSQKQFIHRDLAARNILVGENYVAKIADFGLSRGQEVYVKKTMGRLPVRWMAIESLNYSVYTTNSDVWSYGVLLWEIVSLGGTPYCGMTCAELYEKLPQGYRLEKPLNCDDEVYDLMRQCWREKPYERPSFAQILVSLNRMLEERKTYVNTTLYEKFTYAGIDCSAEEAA
T3 sequence (P16234 550-1089 limits assumed): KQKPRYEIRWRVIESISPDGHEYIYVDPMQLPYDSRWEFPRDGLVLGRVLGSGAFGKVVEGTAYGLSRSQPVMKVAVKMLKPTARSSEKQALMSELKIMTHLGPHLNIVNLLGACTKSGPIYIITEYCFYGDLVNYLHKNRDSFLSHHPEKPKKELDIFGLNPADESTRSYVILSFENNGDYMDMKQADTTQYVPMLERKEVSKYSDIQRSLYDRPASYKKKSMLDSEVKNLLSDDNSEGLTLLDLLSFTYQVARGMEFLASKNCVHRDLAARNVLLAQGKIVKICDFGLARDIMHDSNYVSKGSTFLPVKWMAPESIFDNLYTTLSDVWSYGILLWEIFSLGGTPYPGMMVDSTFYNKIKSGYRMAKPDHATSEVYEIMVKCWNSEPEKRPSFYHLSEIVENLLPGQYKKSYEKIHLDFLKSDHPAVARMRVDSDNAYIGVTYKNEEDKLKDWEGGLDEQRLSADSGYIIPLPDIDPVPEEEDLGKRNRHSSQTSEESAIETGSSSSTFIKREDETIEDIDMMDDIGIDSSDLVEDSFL
T1 sequence (P35968 786-1356 limits assumed): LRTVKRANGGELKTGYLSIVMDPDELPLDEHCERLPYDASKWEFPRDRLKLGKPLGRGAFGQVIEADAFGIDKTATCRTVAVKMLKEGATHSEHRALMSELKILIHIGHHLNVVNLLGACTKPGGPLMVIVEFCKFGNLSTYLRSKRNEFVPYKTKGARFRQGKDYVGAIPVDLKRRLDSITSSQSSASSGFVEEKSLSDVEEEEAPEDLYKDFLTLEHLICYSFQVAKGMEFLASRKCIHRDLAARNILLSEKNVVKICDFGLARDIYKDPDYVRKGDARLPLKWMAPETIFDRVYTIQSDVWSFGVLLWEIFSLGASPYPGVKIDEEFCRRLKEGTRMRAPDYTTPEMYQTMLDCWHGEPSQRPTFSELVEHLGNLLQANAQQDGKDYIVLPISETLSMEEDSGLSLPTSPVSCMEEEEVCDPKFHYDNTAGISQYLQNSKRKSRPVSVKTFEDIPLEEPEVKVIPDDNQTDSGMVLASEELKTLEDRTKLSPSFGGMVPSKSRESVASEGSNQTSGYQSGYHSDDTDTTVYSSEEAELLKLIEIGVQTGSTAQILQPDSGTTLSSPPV

Cc1cc(Oc2ncnc3ccn(C)c23)ccc1NC(=O)Nc1cccc(C(F)(F)F)c1 [Example 41, N-{2-methyl-4-[(5-methyl-5H-pyrrolo[3,2-d]pyrimidin-4-yl)oxy]phenyl}-N′-[3-(trifluoromethyl)phenyl]urea]
inhibition at 1 µM [1]: ≥ 90% | IC50 [2]: ≤ 5 nM | IC50 [3]: ≤ 500 nM

Cn1ccc2ncnc(Oc3ccc(NC(=O)Nc4cccc(OC(F)(F)F)c4)c(Cl)c3)c21 [Example 20, N-{2-chloro-4-[(5-methyl-5H-pyrrolo[3,2-d]pyrimidin-4-yl)oxy]phenyl}-N′-[3-(trifluoromethoxy)phenyl]urea]
inhibition at 1 µM [1]: ≥ 90% | IC50 [2]: ≤ 5 nM | IC50 [3]: ≤ 500 nM

Cn1ccc2ncnc(Oc3ccc(NC(=O)Nc4cccc(C(F)(F)F)c4)c(Cl)c3)c21 [Example 15, N-{2-chloro-4-[(5-methyl-5H-pyrrolo[3,2-d]pyrimidin-4-yl)oxy]phenyl}-N′-[3-(trifluoromethyl)phenyl]urea]
inhibition at 1 µM [1]: ≥ 90% | IC50 [2]: ≤ 5 nM | IC50 [3]: ≤ 500 nM

CCn1ccc2ncnc(Oc3ccc(NC(=O)Nc4cccc(C(F)(F)F)c4)c(Cl)c3)c21 [Example 47, N-{2-chloro-4-[(5-ethyl-5H-pyrrolo[3,2-d]pyrimidin-4-yl)oxy]phenyl}-N′-[3-(trifluoromethyl)phenyl]urea]
inhibition at 1 µM [1]: ≥ 90% | IC50 [2]: ≤ 5 nM | IC50 [3]: ≤ 500 nM
